According to BindingDB's records for doi:10.1021/jm801427r (Universita Di Pisa, 2009):
pKi: −log10 of the molar value.

The compounds below were run against T1, Adenosine deaminase (Bos taurus, UniProt P56658) (assay: ADA Enzyme Inhibition Assay). Conditions: pH 7.2; 30 °C.
T1 sequence (P56658 whole entry): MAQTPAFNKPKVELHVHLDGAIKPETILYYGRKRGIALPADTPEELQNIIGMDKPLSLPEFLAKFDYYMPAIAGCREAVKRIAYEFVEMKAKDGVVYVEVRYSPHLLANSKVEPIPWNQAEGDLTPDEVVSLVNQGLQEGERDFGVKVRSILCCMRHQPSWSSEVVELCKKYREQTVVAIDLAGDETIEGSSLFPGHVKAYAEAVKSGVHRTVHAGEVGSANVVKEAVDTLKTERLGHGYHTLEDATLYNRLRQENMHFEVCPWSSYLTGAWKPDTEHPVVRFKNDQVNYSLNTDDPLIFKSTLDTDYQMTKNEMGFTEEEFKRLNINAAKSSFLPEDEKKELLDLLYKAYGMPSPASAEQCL
Procedure: The activity of ADA was determined spectrophotometrically by monitoring the change in absorbance at 262 nm, due to the deamination of adenosine catalyzed by the enzyme. The change in adenosine concentration per min was determined using a Beckman DU-64 kinetics software program (Solf Pack TM Module). To correct for the background change in absorption, a reference blank containing all the assay components except the substrate was prepared. Each inhibitor concentration was tested in triplicate. The IC50 values were determined by linear regression analysis of dose-response curves. The Ki values were calculated from IC50 values by means of the Cheng and Prusoff.
`O=C(Nc1ccc(Cc2ccccc2)cc1)Nc1ccc(Cn2cc3c(=O)[nH]cnc3n2)cc1` [1-(4-benzylphenyl)-3-[4-({4-oxo-2H,4H,5H-pyrazolo[3,4-d]pyrimidin-2-yl}methyl)phenyl]urea] was tested, and the pKi was 6.73.
`O=C(Nc1ccc(F)cc1)Nc1ccc(Cn2cc3c(=O)[nH]cnc3n2)cc1` [1-(4-fluorophenyl)-3-[4-({4-oxo-2H,4H,5H-pyrazolo[3,4-d]pyrimidin-2-yl}methyl)phenyl]urea] showed a pKi of 8.94.
`COc1ccc(NC(=O)Nc2ccc(Cn3cc4c(=O)[nH]cnc4n3)cc2)cc1` [1-(4-methoxyphenyl)-3-[4-({4-oxo-2H,4H,5H-pyrazolo[3,4-d]pyrimidin-2-yl}methyl)phenyl]urea] was tested, and the pKi was 7.55.
Compound `O=C(Nc1ccc(Cn2cc3c(=O)[nH]cnc3n2)cc1)Nc1ccc(OCc2ccccc2)cc1` [1-[4-(benzyloxy)phenyl]-3-[4-({4-oxo-2H,4H,5H-pyrazolo[3,4-d]pyrimidin-2-yl}methyl)phenyl]urea] has a pKi of 6.97.
In the case of `CN(C)c1ccc(NC(=O)Nc2ccc(Cn3cc4c(=O)[nH]cnc4n3)cc2)cc1` [1-[4-(dimethylamino)phenyl]-3-[4-({4-oxo-2H,4H,5H-pyrazolo[3,4-d]pyrimidin-2-yl}methyl)phenyl]urea], the pKi was 8.70.
With `O=C(NCc1ccccc1)Nc1ccc(Cn2cc3c(=O)[nH]cnc3n2)cc1` [1-benzyl-3-[4-({4-oxo-2H,4H,5H-pyrazolo[3,4-d]pyrimidin-2-yl}methyl)phenyl]urea] the pKi was 7.07.
For `O=C(Nc1ccc(Cn2cc3c(=O)[nH]cnc3n2)cc1)Nc1ccc(C(F)(F)F)cc1` [3-[4-({4-oxo-2H,4H,5H-pyrazolo[3,4-d]pyrimidin-2-yl}methyl)phenyl]-1-[4-(trifluoromethyl)phenyl]urea], the pKi was 9.80.
`O=C(Nc1ccccc1)Nc1ccc(Cn2cc3c(=O)[nH]cnc3n2)cc1` [3-[4-({4-oxo-2H,4H,5H-pyrazolo[3,4-d]pyrimidin-2-yl}methyl)phenyl]-1-phenylurea] gave a pKi of 8.62.
`O=C(Nc1ccc(Cn2cc3c(=O)[nH]cnc3n2)cc1)c1ccc(F)cc1` [4-fluoro-N-[4-({4-oxo-2H,4H,5H-pyrazolo[3,4-d]pyrimidin-2-yl}methyl)phenyl]benzamide] showed a pKi of 9.02.
`COc1ccc(C(=O)Nc2ccc(Cn3cc4c(=O)[nH]cnc4n3)cc2)cc1` [4-methoxy-N-[4-({4-oxo-2H,4H,5H-pyrazolo[3,4-d]pyrimidin-2-yl}methyl)phenyl]benzamide] showed a pKi of 7.81.
`CCCCCC[C@H]([C@H](C)O)n1cnc2c(N)ncnc21` [(2S,3R)-3-(6-amino-9H-purin-9-yl)nonan-2-ol] showed a pKi of 8.94.
`O=C(Cc1ccccc1)Nc1ccc(Cn2cc3c(=O)[nH]cnc3n2)cc1` [N-[4-({4-oxo-2H,4H,5H-pyrazolo[3,4-d]pyrimidin-2-yl}methyl)phenyl]-2-phenylacetamide] gave a pKi of 7.32.
`O=C(Nc1ccc(Cn2cc3c(=O)[nH]cnc3n2)cc1)c1ccc(C(F)(F)F)cc1` [N-[4-({4-oxo-2H,4H,5H-pyrazolo[3,4-d]pyrimidin-2-yl}methyl)phenyl]-4-(trifluoromethyl)benzamide] showed a pKi of 9.29.
In the case of `O=C(Nc1ccc(Cn2cc3c(=O)[nH]cnc3n2)cc1)c1ccccc1` [N-[4-({4-oxo-2H,4H,5H-pyrazolo[3,4-d]pyrimidin-2-yl}methyl)phenyl]benzamide], the pKi was 7.90.
